Measured values taken from ChEMBL document CHEMBL5604063, “ASAP - DENV-2 NS2B-NS3 protease fluorescence dose response” (2024).

Key:
Genome polyprotein [1] = target: T1, Genome polyprotein (dengue virus type 2, UniProt P29990); type: functional, Thailand/16681/1984
Genome polyprotein [2] = target: T1, Genome polyprotein; type: functional, Thailand/16681/1984; remark: listed apart in the source

T1 sequence (P29990 1346-1475 limits assumed): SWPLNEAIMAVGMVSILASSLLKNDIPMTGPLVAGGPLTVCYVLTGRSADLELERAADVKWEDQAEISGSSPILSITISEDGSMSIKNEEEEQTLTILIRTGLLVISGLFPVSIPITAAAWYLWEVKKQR
T1 sequence (P29990 1476-2093 limits assumed): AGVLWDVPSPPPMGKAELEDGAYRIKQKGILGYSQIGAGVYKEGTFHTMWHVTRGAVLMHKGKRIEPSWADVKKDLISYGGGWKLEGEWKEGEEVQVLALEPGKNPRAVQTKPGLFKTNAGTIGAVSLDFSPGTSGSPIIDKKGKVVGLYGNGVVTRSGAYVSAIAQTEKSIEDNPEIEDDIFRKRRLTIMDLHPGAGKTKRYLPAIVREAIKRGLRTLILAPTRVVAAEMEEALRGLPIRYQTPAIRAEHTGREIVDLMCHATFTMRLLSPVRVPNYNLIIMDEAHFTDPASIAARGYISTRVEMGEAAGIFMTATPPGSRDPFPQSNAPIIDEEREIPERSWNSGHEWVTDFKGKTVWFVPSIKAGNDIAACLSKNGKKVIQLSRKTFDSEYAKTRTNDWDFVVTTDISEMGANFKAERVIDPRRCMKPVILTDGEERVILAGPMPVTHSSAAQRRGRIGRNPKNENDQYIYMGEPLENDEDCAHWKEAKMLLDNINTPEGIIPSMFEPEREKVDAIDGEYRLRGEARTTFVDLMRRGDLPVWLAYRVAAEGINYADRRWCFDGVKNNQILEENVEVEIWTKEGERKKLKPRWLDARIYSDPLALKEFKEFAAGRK

Compound | IC50 (Genome polyprotein [1]) | IC50 (Genome polyprotein [2])
O=C(Nc1ccc2c(c1)CCCN2)c1cc(Cl)cc2[nH]ncc12 | > 100 µM | > 99.5 µM
O=C(O)c1cc2cc(-c3cccc([C@H]4CCOC4)n3)ccc2[nH]1 | > 100 µM | > 99.5 µM
O=C(Nc1ccc2c(c1)CNC2)c1cc(=O)[nH]c2c(F)cccc12 | > 100 µM | > 99.5 µM
NCc1cccc([C@@H]2[C@H](C(=O)O)[C@H]2c2cc(N)cc(Cl)c2)c1 | > 100 µM | > 99.5 µM
O=C(Nc1ccc2c(c1)[C@H]1CC[C@H]2N1)c1cc(Cl)cc2[nH]ncc12 | > 100 µM | > 99.5 µM
O=C(NCc1ccc2c(c1)CNC2)c1cc(Cl)cc2[nH]ncc12 | > 100 µM | > 99.5 µM
O=C(Nc1ccc2c(c1)CCNCC2)c1cc(Cl)cc2[nH]ncc12 | > 100 µM | 47.5 µM
O=C(NCC1CCNCC1)c1cc(Cl)cc2[nH]ncc12 | > 100 µM | > 99.5 µM
O=C(Nc1ccc2c(c1)CNC2)c1cc(Br)cc2[nH]ncc12 | > 100 µM | > 99.5 µM
COC(=O)c1ccc2[nH]cc(Cc3ccc(-c4nnn[nH]4)cc3)c2c1 | 72.4 µM | > 99.5 µM
O=C(c1cc(Cl)cc2[nH]ncc12)N1CCC(C2CCNCC2)CC1 | > 100 µM | > 99.5 µM
O=C1NCc2ccc(NC(=O)c3cc(Cl)cc4[nH]ncc34)cc21 | > 100 µM | > 99.5 µM
O=C(Nc1ccc2c(n1)CNC2)c1cc(Cl)cc2[nH]ncc12 | > 100 µM | > 99.5 µM
Cc1ccc(NC(=O)c2cc(Cl)cc3[nH]ncc23)cc1CN | > 100 µM | > 99.5 µM
Cc1ccc(NC(=O)c2cc(Cl)cc3[nH]ncc23)cc1N | > 100 µM | > 99.5 µM
NC[C@H]1CC[C@H](NC(=O)c2cc(Cl)cc3[nH]ncc23)CC1 | > 100 µM | > 99.5 µM

Compound | IC50 (Genome polyprotein [1]) | IC50 (Genome polyprotein [2])
O=C(Nc1ccc2c(c1)CNC2)c1cc(Br)cc2cccnc12 | > 100 µM | > 99.5 µM
O=C(Nc1ccc2c(c1)CN(C(=O)C(F)(F)F)C2)c1cc(Cl)cc2[nH]ncc12 | > 100 µM | > 99.5 µM
Nc1nccc(C(=O)Nc2ccc3c(c2)CNC3)n1 | > 100 µM | > 99.5 µM
O=C(Nc1cc(Cl)cc(-c2cc(C(=O)O)n(-c3ccc(F)cc3)n2)c1)OCc1ccccc1 | 10.6 µM | 17.5 µM
N[C@H]1CCCc2ccc(NC(=O)c3cc(Cl)cc4[nH]ncc34)cc21 | > 100 µM | > 99.5 µM
N[C@H]1Cc2ccc(NC(=O)c3cc(Cl)cc4[nH]ncc34)cc2C1 | > 100 µM | > 99.5 µM
CNCc1cccc(NC(=O)c2cc(Cl)cc3[nH]ncc23)c1 | > 100 µM | 73.3 µM
Cc1ncc(Br)cc1C(=O)Nc1ccc2c(c1)CNC2 | > 100 µM | > 99.5 µM
CN1C(=O)[C@H](c2cc(Cl)cc(NC(=O)OCc3ccccc3)c2)N(c2cccc(-c3nn[nH]n3)c2)C1=O | 19 µM | 21.8 µM
CCNCc1ccc(NC(=O)c2cc(Cl)cc3[nH]ncc23)cc1 | > 100 µM | > 99.5 µM
N#Cc1cc(C(=O)Nc2ccc3c(c2)CNC3)cc(C(F)(F)F)c1 | > 100 µM | > 99.5 µM
Cc1cc(C#N)cc2c(Cc3ccc(-c4nnn[nH]4)cc3)c[nH]c12 | 35 µM | 74.3 µM
COc1nnc(C(F)(F)F)cc1-c1ccc2[nH]c(C(=O)O)cc2c1 | > 100 µM | > 99.5 µM
CCc1nccn1CC(=O)Nc1ccc2c(c1)CNC2 | > 100 µM | > 99.5 µM
O=C(CSc1cccc(Br)c1)Nc1ccc2c(c1)CNC2 | > 100 µM | > 99.5 µM
NC(=O)c1[nH]c2ccc(Br)cc2c1Cc1ccc(-c2nnn[nH]2)cc1 | 26.8 µM | 54.7 µM
